Source: ChEMBL document CHEMBL1126282, “Synthesis and conformational properties of the lanthionine-bridged opioid peptide [D-AlaL2,AlaL5]enkephalin as determined by NMR and computer simulations” (J Med Chem, 1992)

What was measured:
[1] = Selectivity Ratio of IC50 of MVD to IC50 of GPI; type: functional
[2] = organism: Cavia porcellus; test: Concentration inhibiting electrically induced contraction of guinea pig ileum(GPI).; type: functional, organism-based
[3] = tested on: Mus musculus; test: Concentration inhibiting electrically induced contraction of mouse vas deferens(MVD) at an ED50 of 0.15(ug/kg).; type: functional, organism-based
[4] = tested on: Cavia porcellus; test: Concentration inhibiting electrically induced contraction of guinea pig ileum(GPI) at an ED50 of 0.15(ug/kg).; type: functional, organism-based
[5] = organism: Cavia porcellus; test: Potency to inhibit electrically induced contraction of guinea pig ileum(GPI) relative to [Leu5]-enkephalin.; type: functional
[6] = tested on: Rattus norvegicus; test: Effective dose was measured using in vivo rat hot plate test after intrathecal injection; type: functional; settings: central
[7] = organism: Mus musculus; test: Potency to inhibit electrically induced contraction of mouse vas deferens(MVD) relative to [Leu5]-enkephalin.; type: functional

SMILES | Ratio [1] | Relative potency [5] | ED50 [6] [µg/kg] | Relative potency [7] | other results
NC(=O)[C@H]1CSSC[C@H](NC(=O)[C@@H](N)Cc2ccc(O)cc2)C(=O)NCC(=O)N[C@H](Cc2ccccc2)C(=O)N1 | 0.503 |  |  |  | 
NC(=O)[C@@H]1CSSC[C@@H](NC(=O)[C@@H](N)Cc2ccc(O)cc2)C(=O)NCC(=O)N[C@@H](Cc2ccccc2)C(=O)N1 [listing 1 of 2 here] |  |  |  |  | IC50 [2]: 1.51 nM
NC(=O)[C@@H]1CSC[C@@H](NC(=O)[C@@H](N)Cc2ccc(O)cc2)C(=O)NCC(=O)N[C@@H](Cc2ccccc2)C(=O)N1 | 0.882 | 396 | 0.15 | 21 | IC50 [3]: 0.54 nM; IC50 [4]: 0.62 nM
NC(=O)[C@@H]1CSSC[C@@H](NC(=O)[C@@H](N)Cc2ccc(O)cc2)C(=O)NCC(=O)N[C@@H](Cc2ccccc2)C(=O)N1 [listing 2 of 2 here] |  | 132 |  | 17 | 
CN1CC[C@]23c4c5ccc(O)c4O[C@H]2[C@@H](O)C=C[C@H]3[C@H]1C5 [MORPHINE] |  |  | 5.6 |  | 
CC(C)C[C@H](NC(=O)[C@H](Cc1ccccc1)NC(=O)CNC(=O)CNC(=O)[C@@H](N)Cc1ccc(O)cc1)C(=O)O [ENKEPHALIN] |  |  | > 100 |  | 
